Results reported in patent US8119624B2, “Fused phenyl amido heterocyclic compounds” (Pfizer Inc., priority 2006, dated 2012).

Target: T1, Full-length glucokinase (beta cell isoform) (Homo sapiens, UniProt P35557)
T1 construct: Full-length glucokinase (beta cell isoform) was His-tagged at N-terminus; His tag (N); made in house
T1 sequence (P35557 1-465): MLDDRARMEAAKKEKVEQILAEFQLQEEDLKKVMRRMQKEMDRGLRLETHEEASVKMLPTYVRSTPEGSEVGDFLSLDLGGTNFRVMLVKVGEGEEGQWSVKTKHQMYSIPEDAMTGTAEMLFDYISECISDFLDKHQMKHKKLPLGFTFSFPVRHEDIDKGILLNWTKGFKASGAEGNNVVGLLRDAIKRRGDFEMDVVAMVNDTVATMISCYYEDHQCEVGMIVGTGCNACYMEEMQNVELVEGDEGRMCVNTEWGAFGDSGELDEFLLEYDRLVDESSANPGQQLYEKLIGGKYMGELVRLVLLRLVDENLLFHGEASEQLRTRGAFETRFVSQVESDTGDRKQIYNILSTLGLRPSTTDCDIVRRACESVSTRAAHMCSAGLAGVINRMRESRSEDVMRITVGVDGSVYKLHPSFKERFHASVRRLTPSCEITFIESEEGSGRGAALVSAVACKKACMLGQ
Assay: Glucokinase biochemical assay (PK/LDH-coupled, NADH depletion at 340 nm): % activation, EC50, % max activation
Conditions: 5 mM glucose; for activation at 10 µM: read-out: % Activation at 10 uM; for EC50: GK activation, read-out: EC50; for Emax: fitted maximum activation, read-out: % Max Activation
Procedure, shortened: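 N-terminally His-tagged full-length human beta-cell glucokinase, room temperature, 5 mM glucose, 1 mM ATP, PK/LDH-coupled with 0.7 mM NADH, 1% DMSO final. Initial velocity from the 200–900 s slope of A340 decline. % activation = (Va/Vo−1)×100, measured across compound concentrations.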

[1] = 10 uM compound, % Activation=(Va/Vo−1)×100

Compound `Cn1ccc(NC(=O)c2cc(Oc3cnc(C(=O)N4CCC4)c(F)c3)c3c(c2)OC(C)(C)C3)n1` [Example 173, 4-[6-(Azetidine-1-carbonyl)-5-fluoro-pyridin-3-yloxy]-2,2-dimethyl-2,3-dihydro-benzofuran-6-carboxylic acid (1-methyl-1H-pyrazol-3-yl)-amide] has an activation at 10 µM [1] of 159%, an EC50 of 68 nM and an Emax of 148%.
`Cn1ccc(NC(=O)c2cc(Oc3ccc(C(=O)N4CCCC4)c(F)c3)c3c(c2)OC(C)(C)C3)n1` [Example 56, 4-[3-Fluoro-4-(pyrrolidine-1-carbonyl)-phenoxy]-2,2-dimethyl-2,3-dihydro-benzofuran-6-carboxylic acid(1-methyl-1H-pyrazol-3-yl)-amide] gave an activation at 10 µM [1] of 107%, an EC50 of 50.7 nM and an Emax of 108%.
`CN(C)C(=O)c1ccc(Oc2cc(C(=O)Nc3ccn(C)n3)cc3ccsc23)cc1F` [Example 366, 7-(4-(Dimethylcarbamoyl)-3-fluorophenoxy)-N-(1-methyl-1H-pyrazol-3-yl)benzo[b]thiophene-5-carboxamide] gave an activation at 10 µM [1] of 6.4%.
Work on `CN(C)C(=O)c1ccc(Oc2cc(C(=O)Nc3ccn(C)n3)cc3c2CC(C)(CO)O3)cc1F` (stereo not shown) [Example 229, 4-(4-Dimethylcarbamoyl-3-fluoro-phenoxy)-2-hydroxymethyl-2-methyl-2,3-dihydro-benzofuran-6-carboxylic acid (1-methyl-1H-pyrazol-3-yl)-amide] yielded an activation at 10 µM [1] of 101%, an EC50 of 120 nM and an Emax of 97%.
Compound `Cc1ccc(NC(=O)c2cc(Oc3ccc(S(=O)(=O)N4CCC4)cc3)c3c(c2)OC(C)(C)C3)nc1` [Example 124, 4-[4-(Azetidine-1-sulfonyl)-phenoxy]-2,2-dimethyl-2,3-dihydro-benzofuran-6-carboxylic acid (5-methyl-pyridin-2-yl)-amide] has an activation at 10 µM [1] of 156%, an EC50 of 38 nM and an Emax of 113%.
`Cc1cc2c(Oc3ccc(C(=O)N(C)C)c(F)c3)cc(C(=O)Nc3ccn(C)n3)cc2o1` [Example 272, 4-(4-(Dimethylcarbamoyl)-3-fluorophenoxy)-2-methyl-N-(1-methyl-1H-pyrazol-3-yl)benzofuran-6-carboxamide] was tested, and the activation at 10 µM [1] was 49.6%, the EC50 was 310 nM and the Emax was 51%.
With `COCC1(C)Cc2c(Oc3ccc(S(=O)(=O)C4CC4)cc3)cc(C(=O)Nc3cnn(C)n3)cc2O1` (single isomer, unassigned; (+)) [Example 249, (+)-4-(4-Cyclopropanesulfonyl-phenoxy)-2-methoxymethyl-2-methyl-2,3-dihydro-benzofuran-6-carboxylic acid (2-methyl-2H-[1,2,3]triazol-4-yl)-amide] the “% Activation at 10 uM” value [1] was 276%, the EC50 was 86 nM and the Emax was 262%.
With `Cc1ccc(NC(=O)c2cc(Oc3ccc(S(C)(=O)=O)cc3)cc3occc23)nc1` [Example 7, 6-(4-Methanesulfonyl-phenoxy)-benzofuran-4-carboxylic acid(5-methyl-pyridin-2-yl)-amide] the activation at 10 µM [1] was 99.7%, the EC50 was 3700 nM and the Emax was 129%.
In the case of `Cn1ccc(NC(=O)c2cc(Oc3ccc(S(=O)(=O)C4CC4)cc3)c3c(c2)OC(C)(C)C3)n1` [Example 129, 4-(4-Cyclopropanesulfonyl-phenoxy)-2,2-dimethyl-2,3-dihydro-benzofuran-6-carboxylic acid (1-methyl-1H-pyrazol-3-yl)-amide], the activation at 10 µM [1] is reported as 185%, the EC50 is reported as 89 nM and the Emax is reported as 160%.
`CN(C)C1CN(C(=O)c2ccc(Oc3cc(C(=O)Nc4ccn(C)n4)cc4c3CC(C)(C)O4)cc2F)C1` [Example 57, 4-[4-(3-Dimethylamino-azetidine-1-carbonyl)-3-fluoro-phenoxy]-2,2-dimethyl-2,3-dihydro-benzofuran-6-carboxylic acid(1-methyl-1H-pyrazol-3-yl)-amide] gave an activation at 10 µM [1] of 131%, an EC50 of 643 nM and an Emax of 148%.
